# From US9567322B2, “Substituted tetrahydropyrans and method of use” (AbbVie S.á.r.l., priority 2014, dated 2017)
# Columns and labels:
# [1] = molecular target: T1, F508delCFTR (Homo sapiens, UniProt P13569, DEL508-508); test: Cell Surface Expression-Horse Radish Peroxidase (CSE-HRP) assay; format: cell-based; conditions: CFBE41o-F508delCFTR-HRP cells; for EC50: cell surface expression, luminescence readout, 18-24 hours at 33° C., highest concentration tested 20 μM, 8-point curve; for Maximum % activity: maximum at any tested concentration, normalized to on-plate positive control (3 μM) and DMSO
# T1 construct: expressed in transfected cells; host or cells: CFBE41o- (CFBE41o-F508delCFTR-HRP), doxycycline-inducible
# T1 sequence (P13569 with tags, fused parts or gaps DEL508-508): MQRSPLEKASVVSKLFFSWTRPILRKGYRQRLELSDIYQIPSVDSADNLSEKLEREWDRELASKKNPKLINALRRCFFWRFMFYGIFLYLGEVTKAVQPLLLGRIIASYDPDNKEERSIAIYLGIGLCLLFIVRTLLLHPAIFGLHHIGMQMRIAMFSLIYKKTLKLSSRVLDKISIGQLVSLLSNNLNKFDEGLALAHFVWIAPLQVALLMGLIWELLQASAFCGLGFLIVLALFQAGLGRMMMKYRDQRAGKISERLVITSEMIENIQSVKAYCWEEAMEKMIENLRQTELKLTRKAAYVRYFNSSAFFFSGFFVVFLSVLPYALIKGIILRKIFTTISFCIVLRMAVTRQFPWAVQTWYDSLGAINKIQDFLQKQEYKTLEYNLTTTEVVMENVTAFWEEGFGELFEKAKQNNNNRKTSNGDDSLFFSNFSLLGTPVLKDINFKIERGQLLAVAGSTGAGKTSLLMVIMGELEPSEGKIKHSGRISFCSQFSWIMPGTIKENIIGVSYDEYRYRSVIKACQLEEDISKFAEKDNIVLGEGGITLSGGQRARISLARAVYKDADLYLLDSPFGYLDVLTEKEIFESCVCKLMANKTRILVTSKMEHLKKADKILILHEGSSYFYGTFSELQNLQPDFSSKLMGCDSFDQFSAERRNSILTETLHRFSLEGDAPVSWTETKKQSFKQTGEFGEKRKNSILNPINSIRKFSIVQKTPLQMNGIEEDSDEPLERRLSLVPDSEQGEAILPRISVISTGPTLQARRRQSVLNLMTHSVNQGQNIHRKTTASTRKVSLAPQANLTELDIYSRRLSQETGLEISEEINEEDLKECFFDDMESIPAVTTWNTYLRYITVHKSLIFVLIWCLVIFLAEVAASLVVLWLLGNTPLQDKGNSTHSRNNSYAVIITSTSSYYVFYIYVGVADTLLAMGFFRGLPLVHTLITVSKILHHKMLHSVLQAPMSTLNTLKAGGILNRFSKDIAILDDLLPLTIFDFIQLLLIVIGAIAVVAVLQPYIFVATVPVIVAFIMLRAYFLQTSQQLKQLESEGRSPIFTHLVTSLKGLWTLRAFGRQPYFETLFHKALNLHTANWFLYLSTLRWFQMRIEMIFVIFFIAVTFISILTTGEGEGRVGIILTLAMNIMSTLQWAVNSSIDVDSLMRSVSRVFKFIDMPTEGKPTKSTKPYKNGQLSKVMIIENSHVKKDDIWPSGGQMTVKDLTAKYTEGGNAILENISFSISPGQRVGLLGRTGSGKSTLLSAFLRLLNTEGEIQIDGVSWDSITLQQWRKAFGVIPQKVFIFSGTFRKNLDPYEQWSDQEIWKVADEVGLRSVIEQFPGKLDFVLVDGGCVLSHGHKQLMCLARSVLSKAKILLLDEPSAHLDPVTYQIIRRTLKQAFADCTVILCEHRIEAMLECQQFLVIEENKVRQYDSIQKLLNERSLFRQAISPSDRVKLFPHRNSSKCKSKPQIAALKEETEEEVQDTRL
# Summary of the method: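 CFBE41o- cells expressing F508delCFTR with HRP in the fourth extracellular loop were doxycycline-induced (0.5 μg/mL) for 72 h at 37 °C, then treated 18-24 h at 33 °C with an 8-point 3-fold series from 20 μM. Surface HRP luminescence (luminol) was normalized to DMSO and positive control; EC50 came from variable-slope sigmoidal fits of triplicate plates.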
# [2] = molecular target: T2, F508del/F508del CFTR (Homo sapiens, UniProt P13569, DEL508-508); test: Transepithelial Clamp Circuit (TECC-24) conductance assay on primary human bronchial epithelial cells; format: cell-based; conditions: primary hBE cells from F508del/F508delCFTR patients; for EC50: equivalent short circuit current (Ieq), correctors 18-24 hours at 37° C., with control potentiator, 6 test concentrations; for Maximum % activity: relative to positive control (3 μM) coupled with control potentiator = 100%
# T2 construct: cells isolated from CF patients with the homozygous mutation; endogenous in cells; host or cells: primary human bronchial epithelial (hBE) cells from F508del/F508del CF patients
# T2 sequence (P13569 with tags, fused parts or gaps DEL508-508): as above
# Text: Transepithelial Clamp Circuit on Human Bronchial Epithelial Cells Conductance Assay:
# A cell based assay using the primary human bronchial epithelial cells (hBE) was used as a secondary assay to test novel F508delCFTR correctors for their activity on primary hBE cells with F508del/F508del CFTR mutation. The assay used a TECC-24 (Transepithelial Clamp Circuit for 24 wells) instrument that measures the functionality of the mutated channel by measuring the equivalent short circuit current (Ieq) generated by the polarized epithelial cells. The instrument works by measuring the transepithelial potential difference (Vt) and transepithelial resistance (Rt) in an open circuit format, and the Ieq is calculated by using Ohms law (Ieq=Vt/Rt). The assay was run in a 24-well format and all 24-wells were measured at the same time point giving a higher throughput for this assay.
# Primary human bronchial epithelial (hBE) cells from F508del/F508delCFTR patients were expanded from 1×10^6 to 250×10^6 cells (Neuberger T, Burton B, Clark H and VanGoor F; Cystic Fibrosis, Methods in Mole Biol 741; eds. Amaral M D and Kunzelmann K, 2011). For this purpose, cells isolated from CF patients with the homozygous mutation were seeded onto 24 well Corning (Cat #3378) filter plates that were coated with 3T3 conditioned media and grown at an air-liquid interface for 35 days using an Ultroser® G supplemented differentiation media. Apical surface mucus was removed 72 hours before the experiment using 3 mM dithiothreitol (DTT) in phosphate buffered saline (PBS). The apical surface was washed again 24 hours before the experiment using PBS. The cells were incubated with the desired dose response of the corrector compounds 18-24 hours at 37° C., 5% CO2. The corrector compounds are only added on the basolateral side of the epithelial cells.
# On the day of measuring the corrector activity on the TECC, the cells were switched into a bicarbonate and serum free F-12 Coon's medium and allowed to equilibrate for 90 minutes in a CO2 free incubator. At the time of measurement, the apical and basolateral sides of the filter were bathed with the F-12 Coon's modification media (with 20 mM 4-(2-hydroxyethyl)-1-piperazineethanesulfonic acid (HEPES), pH 7.4 (using 1 M tris(hydroxymethyl)aminomethane (Tris)), and the measurements were made at 36.5° C. Transepithelial voltage (Vt) and transepithelial resistance (Rt) were measured using a 24 channel transepithelial current clamp (TECC-24). Current responses to the sequential addition of benzamil (apical 6 M addition; for inhibiting epithelial ENaC channel), forskolin (apical and basolateral 10 M addition; for activating the CFTR channel), control potentiator (N-(3-carbamoyl-5,5,7,7-tetramethyl-4,7-dihydro-5H-thieno[2,3-c]pyran-2-yl)-1H-pyrazole-5-carboxamide; apical and basolateral 1 M addition; for potentiating the CFTR channel) and bumetanide (basolateral 20 μM addition; for inhibiting the Na:2Cl:K co-transporter, an indirect measure of inhibiting the Cl-secretion driven by CFTR channel) were measured.
# All plates contained negative controls (dimethyl sulfoxide, DMSO) which coupled with the control potentiator (N-(3-carbamoyl-5,5,7,7-tetramethyl-4,7-dihydro-5H-thieno[2,3-c]pyran-2-yl)-1H-pyrazole-5-carboxamide) sets the null response and positive controls (3 μM of 3-[(2R,4R)-4-({[1-(2,2-difluoro-1,3-benzodioxol-5-yl)cyclopropyl]carbonyl}amino)-7-methoxy-3,4-dihydro-2H-chromen-2-yl]benzoic acid) coupled with the control potentiator sets the 100% response to measure the correction of the mutated CFTR channel. The maximum percent activity is reported relative to the positive control value.
# The % activity measured at each of the 6 test concentrations of the test compound was normalized to the on-plate positive control using the following formula: % activity=[(test compound response−DMSO response)/(positive control response−DMSO response)]*100 […]
EC50 [1],Maximum % activity [1],EC50 [2],Maximum % activity [2],Structure (SMILES)
2.23 µM,100%,1.03 µM,87%,"O=C(O)c1cccc([C@H]2C[C@@H](NC(=O)C3(c4ccc5c(c4)OC(F)(F)O5)CC3)CCO2)c1 [Example 19, 3-[(2R,4S)-4-({[1-(2,2-difluoro-1,3-benzodioxol-5-yl)cyclopropyl]carbonyl}amino)tetrahydro-2H-pyran-2-yl]benzoic acid]"
0.37 µM,,0.2 µM,,"Cc1cc(C(=O)O)ccc1[C@H]1C[C@H](NC(=O)C2(c3ccc4c(c3)OC(F)(F)O4)CC2)C[C@@H](c2ccccc2)O1 (single isomer, unassigned) [Example 65]"
2.86 µM,113%,1.34 µM,73%,"O=C(O)c1ccc([C@H]2C[C@@H](NC(=O)C3(c4ccc5c(c4)OC(F)(F)O5)CC3)CCO2)cc1 (racemic) [Example 14, rac-4-[(2R,4S)-4-({[1-(2,2-difluoro-1,3-benzodioxol-5-yl)cyclopropyl]carbonyl}amino)tetrahydro-2H-pyran-2-yl]benzoic acid]"
